Measured values as given in US12097190B2, “Therapeutic use of levorotatory β-lactams in hematopoiesis, immuno-oncology therapy, and regulation of lipoprotein and apolipoprotein levels” (Alpha-1 Biologics, LLC, priority 2017, dated 2024).

Columns and labels:
[1] = test system: HIV non-permissive (minus) clone 17; experiment: Adherence assay on coverslips, U937 minus clone 17; assay type: cell-based, human
Protocol: (§1) To coverslips prepared with chemoattractants as described above, 10^6 cells in 90 μl HBSS were mixed to uniformity, and incubated for 30 min in humidified 5% CO2 at 37° C. without dehydration. To detect interacting effects of stimulants, cells were delivered in an 80 μl volume to coverslips previously prepared with 10 μl of one stimulant, mixed to uniformity, and incubated for 15 min at 37° C. Subsequently, an additional stimulant was delivered in a 10 μl volume to each coverslip, mixed with pre-incubated cells to uniformity, and incubated for 30-60 min at 37° C. […] Slides were examined by epi-illumination UV microscopy on a Zeiss Axioskop Means and standard deviations were determined by counting adherent cells in at least three fields/coverslip.
(§2) Means and standard deviations represent the difference between stimulated and unstimulated adherence. […] Adherence was optimized for each chemoattractant and adherence induced by each chemoattractant was enumerated in more than three separate experiments.

[2] = test system: HIV permissive (plus) clone 10; experiment: Adherence assay on coverslips, U937 plus clone 10; assay type: cell-based, human
Protocol: as §1, §2

Ser-Phe-Leu-Leu-Arg-Asn [SFLLRN]
stimulation of adherence [1]: Neither subclone was influenced
stimulation of adherence [2]: Neither subclone was influenced
